For 34 compounds, IC50 and EC50 results are on record in ChEMBL document CHEMBL4219204, “Structure-based design and discovery of potent and selective KDM5 inhibitors” (Bioorg Med Chem Lett, 2018).

In assay [1] the target is T1, Lysine-specific demethylase 4C (Homo sapiens, UniProt Q9H3R0).
T1 sequence (Q9H3R0 whole entry): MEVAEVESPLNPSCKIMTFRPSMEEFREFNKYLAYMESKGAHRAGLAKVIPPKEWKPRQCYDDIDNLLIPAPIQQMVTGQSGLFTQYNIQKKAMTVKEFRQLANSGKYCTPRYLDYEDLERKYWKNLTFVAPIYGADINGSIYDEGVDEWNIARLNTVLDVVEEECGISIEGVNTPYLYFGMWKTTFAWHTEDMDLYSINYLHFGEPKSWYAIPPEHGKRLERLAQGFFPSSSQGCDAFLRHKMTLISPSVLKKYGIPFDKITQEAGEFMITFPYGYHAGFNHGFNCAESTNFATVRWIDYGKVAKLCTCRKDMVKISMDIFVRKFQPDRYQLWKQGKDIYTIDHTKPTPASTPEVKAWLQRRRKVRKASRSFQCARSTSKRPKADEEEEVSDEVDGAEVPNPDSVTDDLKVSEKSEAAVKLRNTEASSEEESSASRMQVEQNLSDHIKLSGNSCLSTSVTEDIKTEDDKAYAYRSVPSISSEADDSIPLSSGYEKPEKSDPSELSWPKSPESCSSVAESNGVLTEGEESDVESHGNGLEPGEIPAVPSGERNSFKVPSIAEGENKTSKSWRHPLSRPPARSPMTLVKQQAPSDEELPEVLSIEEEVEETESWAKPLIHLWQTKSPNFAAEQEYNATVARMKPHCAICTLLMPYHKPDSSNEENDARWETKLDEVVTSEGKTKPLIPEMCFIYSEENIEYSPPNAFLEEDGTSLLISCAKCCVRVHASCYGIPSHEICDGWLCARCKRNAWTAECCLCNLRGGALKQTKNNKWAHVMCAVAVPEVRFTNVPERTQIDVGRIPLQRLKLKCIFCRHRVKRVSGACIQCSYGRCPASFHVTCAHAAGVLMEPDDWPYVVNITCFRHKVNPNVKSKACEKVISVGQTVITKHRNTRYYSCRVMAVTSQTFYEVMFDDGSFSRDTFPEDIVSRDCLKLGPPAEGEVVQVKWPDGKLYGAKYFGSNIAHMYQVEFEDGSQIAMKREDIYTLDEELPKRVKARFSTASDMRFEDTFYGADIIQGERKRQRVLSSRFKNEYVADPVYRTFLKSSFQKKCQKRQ
In words: Inhibition of KDM4C (unknown origin) preincubated with enzyme.

Assay [2] concerns the target Lysine-specific demethylase 5B (Homo sapiens, UniProt Q9UGL1). In words: Inhibition of KDM5B (unknown origin) preincubated with enzyme.
Assay [3] concerns the target Lysine-specific demethylase 5A (Homo sapiens, UniProt P29375). In words: Inhibition of KDM5A (unknown origin) preincubated with enzyme.
For assay [4], the target named is Lysine-specific demethylase 5A/5B (Homo sapiens, UniProt P29375+Q9UGL1). As to the kind of experiment: Inhibition of KDM5A/KDM5B in human ZR-75-1 cells assessed as increase in H3K4me3 level after 72 hrs by fluorometric immunoassay. It counts as cell-based.

A value given as a limit tells only on which side of the number the result lay.

Chain of Lysine-specific demethylase 5B (Q9UGL1 whole entry): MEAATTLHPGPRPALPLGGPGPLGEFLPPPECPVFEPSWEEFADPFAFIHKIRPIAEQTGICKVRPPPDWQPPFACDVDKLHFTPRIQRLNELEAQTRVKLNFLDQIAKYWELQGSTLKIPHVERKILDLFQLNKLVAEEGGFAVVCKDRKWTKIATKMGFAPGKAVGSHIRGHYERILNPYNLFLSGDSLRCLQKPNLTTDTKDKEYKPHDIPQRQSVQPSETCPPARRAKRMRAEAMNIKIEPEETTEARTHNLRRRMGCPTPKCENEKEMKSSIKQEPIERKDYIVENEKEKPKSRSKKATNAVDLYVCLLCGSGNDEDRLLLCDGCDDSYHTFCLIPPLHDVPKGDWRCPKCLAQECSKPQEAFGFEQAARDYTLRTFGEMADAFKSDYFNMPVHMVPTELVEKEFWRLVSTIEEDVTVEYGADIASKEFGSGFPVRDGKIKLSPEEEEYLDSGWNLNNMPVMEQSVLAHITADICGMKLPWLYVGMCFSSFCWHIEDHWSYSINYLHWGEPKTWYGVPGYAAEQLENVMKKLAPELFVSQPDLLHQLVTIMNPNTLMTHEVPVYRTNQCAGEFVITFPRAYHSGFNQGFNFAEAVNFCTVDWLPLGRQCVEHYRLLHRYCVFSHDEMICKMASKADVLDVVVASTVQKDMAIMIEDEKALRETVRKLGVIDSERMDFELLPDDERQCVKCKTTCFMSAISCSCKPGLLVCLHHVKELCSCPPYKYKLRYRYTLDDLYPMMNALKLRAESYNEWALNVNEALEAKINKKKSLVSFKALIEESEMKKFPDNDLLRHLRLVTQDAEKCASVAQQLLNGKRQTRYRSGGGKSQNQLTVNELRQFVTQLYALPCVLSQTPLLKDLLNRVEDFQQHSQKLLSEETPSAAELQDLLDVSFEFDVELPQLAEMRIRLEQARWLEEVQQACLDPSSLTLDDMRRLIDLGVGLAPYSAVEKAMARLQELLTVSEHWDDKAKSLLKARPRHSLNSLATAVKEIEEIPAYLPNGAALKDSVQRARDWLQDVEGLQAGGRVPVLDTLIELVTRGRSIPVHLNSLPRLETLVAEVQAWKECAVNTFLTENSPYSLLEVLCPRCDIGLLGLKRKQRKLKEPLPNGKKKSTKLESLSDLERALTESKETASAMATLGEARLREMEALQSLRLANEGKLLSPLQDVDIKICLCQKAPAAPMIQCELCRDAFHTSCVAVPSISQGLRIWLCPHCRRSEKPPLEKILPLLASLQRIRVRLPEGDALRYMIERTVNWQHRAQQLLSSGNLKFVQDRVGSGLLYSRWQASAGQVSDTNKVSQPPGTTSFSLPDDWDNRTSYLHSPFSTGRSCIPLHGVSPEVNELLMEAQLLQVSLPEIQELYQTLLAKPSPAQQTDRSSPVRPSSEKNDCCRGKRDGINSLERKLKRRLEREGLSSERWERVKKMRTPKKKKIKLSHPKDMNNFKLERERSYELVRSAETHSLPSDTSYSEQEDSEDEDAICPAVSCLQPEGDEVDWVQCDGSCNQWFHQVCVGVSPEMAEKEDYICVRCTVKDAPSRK
Chain of Lysine-specific demethylase 5A (P29375 whole entry): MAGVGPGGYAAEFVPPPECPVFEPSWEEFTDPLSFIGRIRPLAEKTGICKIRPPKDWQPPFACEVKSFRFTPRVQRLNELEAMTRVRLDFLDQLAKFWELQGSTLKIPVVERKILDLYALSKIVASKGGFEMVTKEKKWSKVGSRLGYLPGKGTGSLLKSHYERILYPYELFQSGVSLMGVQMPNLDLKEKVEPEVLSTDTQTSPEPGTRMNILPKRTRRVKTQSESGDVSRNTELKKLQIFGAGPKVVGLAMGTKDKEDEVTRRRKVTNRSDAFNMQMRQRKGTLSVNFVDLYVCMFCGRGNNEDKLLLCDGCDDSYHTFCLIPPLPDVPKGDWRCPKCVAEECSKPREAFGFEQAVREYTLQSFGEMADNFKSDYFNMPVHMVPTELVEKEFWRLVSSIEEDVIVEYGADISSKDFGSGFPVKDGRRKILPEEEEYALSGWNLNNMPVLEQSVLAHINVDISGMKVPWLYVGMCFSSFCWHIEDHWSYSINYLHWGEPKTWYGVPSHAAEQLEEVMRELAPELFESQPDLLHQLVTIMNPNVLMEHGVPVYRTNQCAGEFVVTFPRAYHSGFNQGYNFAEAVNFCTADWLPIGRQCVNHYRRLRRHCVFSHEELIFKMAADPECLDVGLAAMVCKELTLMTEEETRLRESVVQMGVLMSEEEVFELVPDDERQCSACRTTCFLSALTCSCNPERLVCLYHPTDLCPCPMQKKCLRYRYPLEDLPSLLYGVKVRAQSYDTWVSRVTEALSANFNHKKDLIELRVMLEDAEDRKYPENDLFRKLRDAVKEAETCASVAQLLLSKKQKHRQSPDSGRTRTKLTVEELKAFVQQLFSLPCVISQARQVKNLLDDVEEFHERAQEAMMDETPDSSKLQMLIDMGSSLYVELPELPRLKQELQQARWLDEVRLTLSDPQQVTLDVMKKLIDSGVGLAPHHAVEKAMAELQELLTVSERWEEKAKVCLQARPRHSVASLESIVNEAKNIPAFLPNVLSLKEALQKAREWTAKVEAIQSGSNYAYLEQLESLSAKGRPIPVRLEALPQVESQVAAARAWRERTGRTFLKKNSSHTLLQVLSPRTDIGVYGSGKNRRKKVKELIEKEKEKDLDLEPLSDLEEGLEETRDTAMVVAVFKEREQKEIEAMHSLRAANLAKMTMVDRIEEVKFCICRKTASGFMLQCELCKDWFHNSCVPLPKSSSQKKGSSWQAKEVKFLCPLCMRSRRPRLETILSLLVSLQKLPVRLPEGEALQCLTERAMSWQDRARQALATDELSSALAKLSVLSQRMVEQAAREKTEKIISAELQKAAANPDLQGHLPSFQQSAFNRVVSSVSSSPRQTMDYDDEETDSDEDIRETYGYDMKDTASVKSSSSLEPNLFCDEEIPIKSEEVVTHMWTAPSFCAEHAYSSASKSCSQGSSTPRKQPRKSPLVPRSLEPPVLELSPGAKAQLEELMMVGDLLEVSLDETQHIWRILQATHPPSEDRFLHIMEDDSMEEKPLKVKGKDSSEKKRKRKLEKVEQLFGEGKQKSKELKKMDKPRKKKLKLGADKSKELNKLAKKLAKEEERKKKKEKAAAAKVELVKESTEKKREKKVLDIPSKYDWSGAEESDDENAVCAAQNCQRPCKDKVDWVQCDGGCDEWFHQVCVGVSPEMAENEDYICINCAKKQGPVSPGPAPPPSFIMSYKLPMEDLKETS

Take `Cc1ccc(-c2ccnn2-c2cc(C(=O)O)ccn2)cc1O`: the IC50 came to 1.1 µM in assay [1] and 0.076 µM in assay [2].
On to `CCc1cnn(-c2cc(C(=O)O)ccn2)c1OCc1ccc(F)cc1`, for which the values for the IC50 in assay [1], in assay [2] and in assay [3] were 0.26 µM, 0.024 µM and 0.029 µM, respectively.
With `O=C(O)c1ccnc(-n2nccc2OCc2ccccc2F)c1`, the IC50 in assay [2] was found to be 0.042 µM; in assay [3], 0.27 µM.
In the case of `O=C(O)c1ccnc(-n2nccc2OCc2ccc(Cl)cc2F)c1`, the concentration giving a half-maximal response (EC50) in assay [4] was 1.3 µM. The half-inhibitory concentration (IC50) was found to be 0.004 µM in assay [2] and 0.018 µM in assay [3].
With `COc1cc(-c2ccnn2-c2cc(C(=O)O)ccn2)ccc1Cl`, the IC50 in assay [1] was 2.9 µM; in assay [2], 0.23 µM.
Consider `O=C(O)c1ccnc(-n2nccc2OCc2ccccc2)c1`, for which, in assay [4], the EC50 was 7 µM. In addition, the IC50 is 0.005 µM in assay [1], 0.001 to 0.024 µM in assay [2] and 0.55 µM in assay [3].
For the compound `O=C(O)c1ccnc(-n2nccc2OCc2ccc(Cl)cc2)c1`, the half-maximal effective concentration (EC50) in assay [4] came out at 0.42 µM. Further, the IC50 worked out at 0.054 µM in assay [1], 0.004 µM in assay [2] and 0.014 µM in assay [3].
Consider `N#Cc1ccc(COc2ccnn2-c2cc(C(=O)O)ccn2)cc1`, for which the EC50 in assay [4] was 0.94 µM. For the same compound, the results for the IC50 in assay [1], in assay [2] and in assay [3] were 0.014 µM, 0.0006 µM and 0.004 µM, respectively.
On to `O=C(O)c1ccnc(-n2nccc2-c2ccc(O)cc2)c1`, for which the figures for the IC50 in assay [1] and in assay [2] were 0.45 µM and 0.32 µM, respectively.
For `O=C(O)c1ccnc(-n2ncc(CCO)c2OCc2ccc(F)cc2)c1`, the IC50 was over 2 µM in assay [1], 0.068 µM in assay [2] and 0.08 µM in assay [3].
For `Cc1cnn(-c2cc(C(=O)O)ccn2)c1OCc1ccc(F)cc1` the same measures were 2.9 µM, 0.054 µM and 0.077 µM.
With `O=C(O)c1ccnc(-n2nccc2-c2cccc(F)c2)c1`, the 50% inhibitory concentration (IC50) was 0.66 µM in assay [1] and 0.5 µM in assay [2].
On to `O=C(O)c1ccnc(-n2nccc2OCc2ccc(F)cc2)c1`, for which the concentration for a half-maximal effect (EC50) in assay [4] is 0.84 µM. The figures for the half-maximal inhibitory concentration (IC50) in assay [1], in assay [2] and in assay [3] were 0.024 µM, 0.004 µM and 0.038 µM, respectively.
For `O=C(O)c1ccnc(-n2nccc2OCc2ccc(Cl)cc2OCC2CC2)c1`, the 50% inhibitory concentration (IC50) in assay [1] was 0.28 µM; in assay [2], 0.006 µM; in assay [3], 0.075 µM.
As to `COc1cc(Cl)ccc1COc1ccnn1-c1cc(C(=O)O)ccn1`, the EC50 in assay [4] worked out at 0.11 µM. In addition, the IC50 is 0.038 µM in assay [1], 0.001 µM in assay [2] and 0.012 µM in assay [3].
As for `Cc1ccc(-c2ccnn2-c2cc(C(=O)O)ccn2)cc1`, the figures for the IC50 in assay [1] and in assay [2] were 1.1 µM and 0.2 µM, respectively.
For `O=C(O)c1ccnc(-n2nccc2-c2ccc(F)c(F)c2)c1`, in that order: 0.56 µM and 0.37 µM.
Turning to `O=C(O)c1ccnc(-n2nccc2OCc2cccc(F)c2)c1`, the concentration giving a half-maximal response (EC50) in assay [4] was determined as 12 µM. Besides, the results for the IC50 in assay [2] and in assay [3] were 0.022 µM and 0.43 µM, respectively.
As for `O=C(O)c1ccnc(-n2nccc2-c2ccccc2)c1`, the IC50 in assay [1] worked out at 6.2 µM; in assay [2] it was 4.4 µM.
Take `Cc1ccc(COc2ccnn2-c2cc(C(=O)O)ccn2)cc1`: the EC50 in assay [4] was 0.99 µM. Also, the IC50 in assay [1] amounted to 1.1 µM; in assay [2] it was 0.004 µM; in assay [3], 0.032 µM.
As to `O=C(O)c1ccnc(-n2nccc2OCc2ccc(C3CC3)cc2)c1`, the concentration for half-maximal inhibition (IC50) in assay [2] worked out at 0.008 µM; in assay [3], 0.25 µM.
`O=C(O)c1ccnc(-n2nccc2-c2ccc(F)cc2F)c1`: the figures for the IC50 in assay [1] and in assay [2] were 0.38 µM and 0.17 µM, respectively.
Consider `COc1ccc(COc2ccnn2-c2cc(C(=O)O)ccn2)cc1`, for which the IC50 in assay [1] amounted to 0.068 µM; in assay [2], 0.004 µM; in assay [3] it was 1.7 µM.
As to `O=C(O)c1ccnc(-n2nccc2-c2cccc(O)c2)c1`, the IC50 worked out at 0.41 µM in assay [1] and 0.12 µM in assay [2].
`O=C(O)c1ccnc(-n2nccc2OCc2ccc(C(F)(F)F)cc2)c1` had an IC50 in assay [3] of 0.24 µM.
On to `CN(C)CCc1cnn(-c2cc(C(=O)O)ccn2)c1OCc1ccc(F)cc1`, for which the EC50 in assay [4] was determined as 4.6 µM. The half-maximal inhibitory concentration (IC50) was determined as 0.019 µM in assay [1], 0.001 µM in assay [2] and 0.003 µM in assay [3].
Regarding `O=C(O)c1ccnc(-n2nccc2-c2ccc(F)cc2)c1`, the values for the IC50 in assay [1] and in assay [2] were 0.49 µM and 0.24 µM, respectively.
`O=C(O)c1ccnc(-n2nccc2OCc2ccc(Cl)cc2OCc2ccccc2)c1`: in assay [4], the concentration giving a half-maximal response (EC50) was 0.8 µM. Besides, the IC50 was 0.074 µM in assay [1], 0.004 µM in assay [2] and 0.032 µM in assay [3].
In the case of `COc1cc(-c2ccnn2-c2cc(C(=O)O)ccn2)ccc1C`, the results for the half-maximal inhibitory concentration (IC50) in assay [1] and in assay [2] were 1.8 µM and 0.54 µM, respectively.
Turning to `CCOc1cc(Cl)ccc1COc1ccnn1-c1cc(C(=O)O)ccn1`, the EC50 in assay [4] was 1 µM. For the same compound, the IC50 in assay [1] was 0.078 µM; in assay [2] it was 0.004 µM; in assay [3] it was 0.019 µM.
For `CC(Oc1ccnn1-c1cc(C(=O)O)ccn1)c1ccc(F)cc1` (stereo unspecified), the concentration for half-maximal inhibition (IC50) in assay [1] was found to be 0.31 µM; in assay [2], 0.041 µM; in assay [3], 0.18 µM.
Regarding `O=C(O)c1ccnc(-n2nccc2OCc2ccc(Br)cc2)c1`, the EC50 in assay [4] is 0.86 µM. Moreover, the IC50 in assay [2] is 0.002 µM; in assay [3] it was 0.006 µM.
With `CCc1ccc(COc2ccnn2-c2cc(C(=O)O)ccn2)cc1`, the EC50 in assay [4] was determined as 1.3 µM. The 50% inhibitory concentration (IC50) stood at 3.6 µM in assay [1], 0.003 µM in assay [2] and 0.044 µM in assay [3].
Take `CS(=O)(=O)c1ccc(-c2ccnn2-c2cc(C(=O)O)ccn2)cc1`: the values for the concentration for half-maximal inhibition (IC50) in assay [1] and in assay [2] were 2.7 µM and 0.35 µM, respectively.

Usually IC50 stands for the concentration that inhibits the measured activity by half. For orientation: EC50 means the midpoint of the concentration-response curve.
